Common to all, as to format: cell-based
One assay has as its system K562 cells. As to the kind of experiment: Cell growth inhibitory activity assay (CellTiter-Glo), K562 cells. The following applies: Homo sapiens, 72 h, CTG cell viability. The method in brief: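 K562 cells in logarithmic growth were counted, diluted and plated in 96-well plates, with medium-only blanks and a separate T0 plate read by CTG the following day. After overnight incubation, graded compound concentrations were added for 72 h, with 0.5% DMSO wells as growth controls. Luminescence was read on a Biotek cytation3.0, and IC50 came from nonlinear fitting in GraphPad Prism 7.0.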
(In general: Cellular ATP, detected with luciferase, serves as a proxy for viable cell number.)

Another assay deals with T1, Ba/F3 BCR-ABL1 WT (Homo sapiens, UniProt P00519+P11274).
T1 construct: BCR (N-terminal fusion partner of the oncoprotein); expressed in transfected cells; host or cells: Ba/F3 (lentiviral transduction, monoclonal line)
As to the kind of experiment: Cell growth inhibitory activity assay (CellTiter-Glo), Ba/F3 BCR-ABL1 WT cells. The following applies: 72 h, CTG cell viability. In outline:
(§1)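 Compound dilutions applied for 72 h (37 °C, 5% CO2) to overnight-plated Ba/F3 cells, parental or engineered to express WT/mutant BCR-ABL1. ATP-based CellTiter-Glo luminescence read, referenced to day-0 viability and 0.5% DMSO wells; IC50 fitted by four-parameter logistic curve.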

For the next assay, the target named is T2, Ba/F3 BCR-ABL1 T315I (Homo sapiens, UniProt P00519+P11274, T315I).
T2 construct: BCR (N-terminal fusion partner of the oncoprotein); expressed in transfected cells; host or cells: Ba/F3 (lentiviral transduction, monoclonal line)
Put plainly: Cell growth inhibitory activity assay (CellTiter-Glo), Ba/F3 BCR-ABL1 T315I cells. The following applies: 72 h, CTG cell viability. In outline: as §1

For a further assay, the system named is Ba/F3 parental cells. Put plainly: Cell growth inhibitory activity assay (CellTiter-Glo), Ba/F3 parental cells. The following applies: Mus musculus, BaF3, 72 h, CTG cell viability, read-out: IC50 Ba/F3 BCR-ABL1 Parental. The method in brief:
as §1

We go through 14 molecules from patent publication EP4768484A1, “HETEROCYCLIC FUSED RING COMPOUND, AND COMPOSITION AND USE THEREOF” (Shenzhen TargetRx, Inc., priority 2023, dated 2025).

Structures are written as SMILES. Where only a bound is given, the exact number is not on record here.

In the case of `COc1ccc(-c2ccnc(-n3ncc4c3-c3cc(-c5cc(C(=O)Nc6ccc(OC(F)(F)Cl)cc6)cc6nc7n(c56)[C@H](C)COC7)cnc3C4)n2)cc1F` [T-91-A, (R)-N-(4-(chlorodifluoromethoxy)phenyl)-6-(1-(4-(3-fluoro-4-methoxyphenyl)pyrimidin-2-yl)-1,4-dihydropyrazolo[3',4':3,4]cyclopenta[1,2-b]pyridin-7-yl)-4-methyl-3,4-dihydro-1H-benzo[4,5]imidazo[2,1-c][1,4]oxazine-8-carboxamide], the IC50 in the assay with K562 cells is no more than 5 nM; against Ba/F3 BCR-ABL1 WT, 5 to 50 nM; on Ba/F3 BCR-ABL1 T315I, 50 to 1000 nM; with Ba/F3 parental cells it was greater than 1000 nM.
The corresponding values for `COc1ccc(-c2ccnc(-n3cc4c(n3)-c3cc(-c5cc(C(=O)Nc6ccc(OC(F)(F)Cl)cc6)cc6nc7n(c56)[C@H](C)COC7)cnc3C4)n2)cc1F` [T-91-B, (R)-N-(4-(chlorodifluoromethoxy)phenyl)-6-(2-(4-(3-fluoro-4-methoxyphenyl)pyrimidin-2-yl)-2,4-dihydropyrazolo[3',4':3,4]cyclopenta[1,2-b]pyridin-7-yl)-4-methyl-3,4-dihydro-1H-benzo[4,5]imidazo[2,1-c][1,4]oxazine-8-carboxamide] are no more than 5 nM, no more than 5 nM, no more than 5 nM and greater than 1000 nM.
The like results for `C[C@@H]1COCc2nc3cc(C(=O)Nc4ccc(OC(F)(F)Cl)cc4)cc(-c4cnc5c(c4)-c4nn(-c6nccc(-c7ccccc7F)n6)cc4C5)c3n21` [T-92, (R)-N-(4-(chlorodifluoromethoxy)phenyl)-6-(2-(4-(2-fluorophenyl)pyrimidin-2-yl)-2,4-dihydropyrazolo[3',4':3,4]cyclopenta[1,2-b]pyridin-7-yl)-4-methyl-3,4-dihydro-1H-benzo[4,5]imidazo[2,1-c][1,4]oxazine-8-carboxamide] were, in that order, no more than 5 nM, no more than 5 nM, no more than 5 nM and greater than 1000 nM.
The corresponding values for `COc1cccc(-c2ccnc(-n3cc4c(n3)-c3cc(-c5cc(C(=O)Nc6ccc(OC(F)(F)Cl)cc6)cc6nc7n(c56)[C@H](C)COC7)cnc3C4)n2)c1F` [T-93, (R)-N-(4-(chlorodifluoromethoxy)phenyl)-6-(2-(4-(2-fluoro-3-methoxyphenyl)pyrimidin-2-yl)-2,4-dihydropyrazolo[3',4':3,4]cyclopenta[1,2-b]pyridin-7-yl)-4-methyl-3,4-dihydro-1H-benzo[4,5]imidazo[2,1-c][1,4]oxazine-8-carboxamide] are no more than 5 nM, no more than 5 nM, no more than 5 nM and greater than 1000 nM.
Take `C[C@@H]1COCc2nc3cc(C(=O)Nc4ccc(OC(F)(F)Cl)cc4)cc(-c4cnc5c(c4)-c4nn(-c6nccc(-c7ccc(F)nc7)n6)cc4C5)c3n21` [T-94, (R)-N-(4-(chlorodifluoromethoxy)phenyl)-6-(2-(4-(6-fluoropyridin-3-yl)pyrimidin-2-yl)-2,4-dihydropyrazolo[3',4':3,4]cyclopenta[1,2-b]pyridin-7-yl)-4-methyl-3,4-dihydro-1H-benzo[4,5]imidazo[2,1-c][1,4]oxazine-8-carboxamide]: the IC50 in the assay with K562 cells is no more than 5 nM; at Ba/F3 BCR-ABL1 WT it was no more than 5 nM; at Ba/F3 BCR-ABL1 T315I, no more than 5 nM; in the assay with Ba/F3 parental cells it was greater than 1000 nM.
`C[C@@H]1COCc2nc3cc(C(=O)Nc4ccc(OC(F)(F)Cl)cc4)cc(-c4cnc5c(c4)-c4nn(-c6nccc(-c7cccnc7F)n6)cc4C5)c3n21` [T-95, (R)-N-(4-(chlorodifluoromethoxy)phenyl)-6-(2-(4-(2-fluoropyridin-3-yl)pyrimidin-2-yl)-2,4-dihydropyrazolo[3',4':3,4]cyclopenta[1,2-b]pyridin-7-yl)-4-methyl-3,4-dihydro-1H-benzo[4,5]imidazo[2,1-c][1,4]oxazine-8-carboxamide]: the IC50 with K562 cells is no more than 5 nM; at Ba/F3 BCR-ABL1 WT it was no more than 5 nM; against Ba/F3 BCR-ABL1 T315I, no more than 5 nM; in the assay on Ba/F3 parental cells, greater than 1000 nM.
Turning to `C[C@@H]1COCc2nc3cc(C(=O)Nc4ccc(OC(F)(F)Cl)cc4)cc(-c4cnc5c(c4)-c4nn(-c6nccc(-c7cncc(F)c7)n6)cc4C5)c3n21` [T-96, (R)-N-(4-(chlorodifluoromethoxy)phenyl)-6-(2-(4-(5-fluoropyridin-3-yl)pyrimidin-2-yl)-2,4-dihydropyrazolo[3',4':3,4]cyclopenta[1,2-b]pyridin-7-yl)-4-methyl-3,4-dihydro-1H-benzo[4,5]imidazo[2,1-c][1,4]oxazine-8-carboxamide], the IC50 in the assay with K562 cells is no more than 5 nM; on Ba/F3 BCR-ABL1 WT, no more than 5 nM; against Ba/F3 BCR-ABL1 T315I, no more than 5 nM; in the assay on Ba/F3 parental cells, greater than 1000 nM.
Regarding `COc1ncc(-c2ccnc(-n3cc4c(n3)-c3cc(-c5cc(C(=O)Nc6ccc(OC(F)(F)Cl)cc6)cc6nc7n(c56)[C@H](C)COC7)cnc3C4)n2)cc1F` [T-97, (R)-N-(4-(chlorodifluoromethoxy)phenyl)-6-(2-(4-(5-fluoro-6-methoxyoyridin-3-yl)pyrimidin-2-yl)-2,4-dihydropyrazolo[3',4':3,4]cyclopenta[1,2-b]pyridin-7-yl)-4-methyl-3,4-dihydro-1H-benzo[4,5]imidazo[2,1-c][1,4]oxazine-8-carboxamide], the IC50 in the assay on K562 cells is no more than 5 nM; against Ba/F3 BCR-ABL1 WT, no more than 5 nM; against Ba/F3 BCR-ABL1 T315I, no more than 5 nM; with Ba/F3 parental cells, greater than 1000 nM.
With `C[C@@H]1COCc2nc3cc(C(=O)Nc4ccc(OC(F)(F)Cl)cc4)cc(-c4cnc5c(c4)-c4nn(-c6nccc(-c7cncc(C#N)c7)n6)cc4C5)c3n21` [T-98, (R)-N-(4-(chlorodifluoromethoxy)phenyl)-6-(2-(4-(5-cyanopyridin-3-yl)pyrimidin-2-yl)-2,4-dihydropyrazolo[3',4':3,4]cyclopenta[1,2-b]pyridin-7-yl)-4-methyl-3,4-dihydro-1H-benzo[4,5]imidazo[2,1-c][1,4]oxazine-8-carboxamide], the IC50 in the assay with K562 cells was no more than 5 nM; against Ba/F3 BCR-ABL1 WT it was no more than 5 nM; on Ba/F3 BCR-ABL1 T315I, no more than 5 nM; in the assay on Ba/F3 parental cells, greater than 1000 nM.
As for `C[C@@H]1COCc2nc3cc(C(=O)Nc4ccc(OC(F)(F)Cl)cc4)cc(-c4cnc5c(c4)-c4nn(-c6nccc(-c7ccc(C#N)nc7)n6)cc4C5)c3n21` [T-99, (R)-N-(4-(chlorodifluoromethoxy)phenyl)-6-(2-(4-(6-cyanopyridin-3-yl)pyrimidin-2-yl)-2,4-dihydropyrazolo[3',4':3,4]cyclopenta[1,2-b]pyridin-7-yl)-4-methyl-3,4-dihydro-1H-benzo[4,5]imidazo[2,1-c][1,4]oxazine-8-carboxamide], the IC50 was no more than 5 nM in the assay on K562 cells, no more than 5 nM at Ba/F3 BCR-ABL1 WT, no more than 5 nM against Ba/F3 BCR-ABL1 T315I and greater than 1000 nM in the assay on Ba/F3 parental cells.
Consider `C[C@@H]1COCc2nc3cc(C(=O)Nc4ccc(OC(F)(F)Cl)cc4)cc(-c4cnc5c(c4)-c4nn(-c6nccc(-c7cncnc7)n6)cc4C5)c3n21` [T-100, (R)-6-(2-([4,5'-bipyrimidin]-2-yl)-2,4-dihydropyrazolo[3',4':3,4]cyclopenta[1,2-b]pyridin-7-yl)-N-(4-(chlorodifluoromethoxy)phenyl)-4-methyl-3,4-dihydro-1H-benzo[4,5]imidazo[2,1-c][1,4]oxazine-8-carboxamide], for which the IC50 was no more than 5 nM with K562 cells, no more than 5 nM against Ba/F3 BCR-ABL1 WT, no more than 5 nM against Ba/F3 BCR-ABL1 T315I and greater than 1000 nM in the assay on Ba/F3 parental cells.
Regarding `CC(C)c1cnc(-n2cc3c(n2)-c2cc(-c4cc(C(=O)Nc5ccc(OC(F)(F)Cl)cc5)cc5nc6n(c45)[C@H](C)COC6)cnc2C3)nc1` [T-101, (R)-N-(4-(chlorodifluoromethoxy)phenyl)-6-(2-(5-isopropyloyrimidin-2-yl)-2,4-dihydropyrazolo[3',4':3,4]cyclooenta[1,2-b]pyridin-7-yl)-4-methyl-3,4-dihydro-1H-benzo[4,5]imidazo[2,1-c][1,4]oxazine-8-carboxamide], the IC50 was no more than 5 nM in the assay on K562 cells, no more than 5 nM against Ba/F3 BCR-ABL1 WT, no more than 5 nM at Ba/F3 BCR-ABL1 T315I and greater than 1000 nM in the assay with Ba/F3 parental cells.
For `C[C@@H]1COCc2nc3cc(C(=O)Nc4ccc(OC(F)(F)Cl)cc4)cc(-c4cnc5c(c4)-c4nn(-c6nccn6C)cc4C5)c3n21` [T-102, (R)-N-(4-(chlorodifluoromethoxy)phenyl)-4-methyl-6-(2-(1-methyl-1H-imidazol-2-yl)-2,4-dihydropyrazolo[3',4':3,4]cyclopenta[1,2-b]pyridin-7-yl)-3,4-dihydro-1H-benzo[4,5]imidazo[2,1-c][1,4]oxazine-8-carboxamide], the IC50 is no more than 5 nM in the assay on K562 cells, no more than 5 nM against Ba/F3 BCR-ABL1 WT, no more than 5 nM against Ba/F3 BCR-ABL1 T315I and greater than 1000 nM with Ba/F3 parental cells.
For `Cc1ccc(-n2cc3c(n2)-c2cc(-c4cc(C(=O)Nc5ccc(OC(F)(F)Cl)cc5)cc5nc6n(c45)[C@H](C)COC6)cnc2C3)nn1` [T-104-A, (R)-N-(4-(chlorodifluoromethoxy)phenyl)-4-methyl-6-(2-(6-methylpyridazin-3-yl)-2,4-dihydropyrazolo[3',4':3,4]cyclopenta[1,2-b]pyridin-7-yl)-3,4-dihydro-1H-benzo[4,5]imidazo[2,1-c][1,4]oxazine-8-carboxamide], the IC50 was no more than 5 nM in the assay on K562 cells, no more than 5 nM on Ba/F3 BCR-ABL1 WT, 5 to 50 nM at Ba/F3 BCR-ABL1 T315I and greater than 1000 nM with Ba/F3 parental cells.
